According to patent publication US8648086B2, “5,6-bicyclic heteroaryl-containing urea compounds as kinase inhibitors” (Ascepion Pharmaceuticals, Inc., priority 2009, dated 2014):

Tests used:
[1] = target: T1, c-Met (Homo sapiens, UniProt P08581); test: c-Met cell-based assay (phospho-c-Met ELISA, A549 cells); conditions: compound at 100 nM
T1 construct: endogenous in cells; host or cells: A549 cells
Method in brief: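 Serum-starved A549 cells (NSCLC) pretreated 2 h with compound (0.5 nM to 500 nM), then stimulated 20 min with 20% FBS. Lysates analysed by ELISA for phospho-c-Met and total c-Met with streptavidin-HRP chemiluminescence.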

[2] = test system: MDA-MB-231 human breast cancer cells; test: In vivo anti-tumor efficacy, MDA-MB-231 xenograft; conditions: Breast cancer MDA-MB-231, nu/nu Balb/c mice
Description: (§1) Female (nu/nu) Balb/c athymic mice at 4-6 weeks of age were injected subcutaneously (s.c.) with MDA-MB-231 human breast cancer cells, A549 human non-small cell lung cancer cells, U87-MG human glioblastoma cells, PC-3 human prostate cancer cells, HT-29 human colon cancer, BEL-7404 human hepatocellular carcinoma, or MKN-45 human gastric cancer cells (ATCC, 5×10^6 cells suspended in 100 μl DMEM medium). Treatment was initiated after the tumor mass grown from s.c. implanted tumor cells reached a median volume of 200-400 mm^3. Mice were randomized into groups with three in each group for small-sample efficacy tests such that the median tumor volume is nearly equal among all groups. For large-sample efficacy tests, mice were randomized into groups with thirteen or fourteen in each group. Each group was treated either with compounds (dissolved in 2:1 mixture of PEG400 and 0.01N HCl (v/v)) or without compounds (vehicle only, 2:1 mixture of PEG400 and 0.01N HCl (v/v)) once per day at dose 12.5, 25, 50 or 100 mg/kg by oral gavage. Tumor volumes were assessed at least twice weekly by caliper measurement from the start of treatment. Tumor volume was calculated using the formula ½×L×W^2 (L: length of tumor's long axis, W: length of tumor's short axis). Treatment was applied for at least two weeks or until the tumor volume reaches a size of ˜2500 mm^3 or greater. Mice were humanly sacrificed after the experiment.
The efficacy of compounds in reducing tumor growth was assessed by the index Tumor Growth Inhibition (TGI). TGI for a given treatment period was calculated using the group mean tumor volumes according to the formula: TGI=100×(VVehicle—group−VTreatment—group)÷VVehicle—group wherein VVehicle—group represents the mean tumor volume for the group treated with vehicle and VTreatment—group represents the mean tumor volume of the group treated with a compound.

[3] = test system: MKN-45 human gastric cancer cells; test: In vivo anti-tumor efficacy, MKN-45 xenograft; conditions: Gastric cancer MKN-45, nu/nu Balb/c mice
Description: as §1, with “experiment. The efficacy of compounds in reducing tumor growth was assessed by the index Tumor Growth Inhibition (TGI). TGI for a given treatment period was calculated using the group mean tumor volumes according to the formula: TGI=100×(VVehicle—group−VTreatment—group)÷VVehicle—group wherein VVehicle—group represents the mean tumor volume for the group treated with vehicle and VTreatment—group represents the mean tumor volume of the group treated with a compound.” for “experiment.”

[4] = test system: A549 human non-small cell lung cancer cells; test: In vivo anti-tumor efficacy, A549 xenograft; conditions: Non-small cell lung cancer A549, nu/nu Balb/c mice, 50 mg/kg oral once per day, n = 2 × 3
Description: as §1, with “experiment. The efficacy of compounds in reducing tumor growth was assessed by the index Tumor Growth Inhibition (TGI). TGI for a given treatment period was calculated using the group mean tumor volumes according to the formula: TGI=100×(VVehicle—group−VTreatment—group)÷VVehicle—group wherein VVehicle—group represents the mean tumor volume for the group treated with vehicle and VTreatment—group represents the mean tumor volume of the group treated with a compound.” for “experiment.”

[5] = test system: PC-3 human prostate cancer cells; test: In vivo anti-tumor efficacy, PC-3 xenograft; conditions: Prostate cancer PC-3, nu/nu Balb/c mice, 50 mg/kg oral once per day, n = 2 × 3
Description: as §1, with “experiment. The efficacy of compounds in reducing tumor growth was assessed by the index Tumor Growth Inhibition (TGI). TGI for a given treatment period was calculated using the group mean tumor volumes according to the formula: TGI=100×(VVehicle—group−VTreatment—group)÷VVehicle—group wherein VVehicle—group represents the mean tumor volume for the group treated with vehicle and VTreatment—group represents the mean tumor volume of the group treated with a compound.” for “experiment.”

[6] = 50 mg/kg oral once per day, n = 2 × 3

T1 sequence (P08581 25-1390): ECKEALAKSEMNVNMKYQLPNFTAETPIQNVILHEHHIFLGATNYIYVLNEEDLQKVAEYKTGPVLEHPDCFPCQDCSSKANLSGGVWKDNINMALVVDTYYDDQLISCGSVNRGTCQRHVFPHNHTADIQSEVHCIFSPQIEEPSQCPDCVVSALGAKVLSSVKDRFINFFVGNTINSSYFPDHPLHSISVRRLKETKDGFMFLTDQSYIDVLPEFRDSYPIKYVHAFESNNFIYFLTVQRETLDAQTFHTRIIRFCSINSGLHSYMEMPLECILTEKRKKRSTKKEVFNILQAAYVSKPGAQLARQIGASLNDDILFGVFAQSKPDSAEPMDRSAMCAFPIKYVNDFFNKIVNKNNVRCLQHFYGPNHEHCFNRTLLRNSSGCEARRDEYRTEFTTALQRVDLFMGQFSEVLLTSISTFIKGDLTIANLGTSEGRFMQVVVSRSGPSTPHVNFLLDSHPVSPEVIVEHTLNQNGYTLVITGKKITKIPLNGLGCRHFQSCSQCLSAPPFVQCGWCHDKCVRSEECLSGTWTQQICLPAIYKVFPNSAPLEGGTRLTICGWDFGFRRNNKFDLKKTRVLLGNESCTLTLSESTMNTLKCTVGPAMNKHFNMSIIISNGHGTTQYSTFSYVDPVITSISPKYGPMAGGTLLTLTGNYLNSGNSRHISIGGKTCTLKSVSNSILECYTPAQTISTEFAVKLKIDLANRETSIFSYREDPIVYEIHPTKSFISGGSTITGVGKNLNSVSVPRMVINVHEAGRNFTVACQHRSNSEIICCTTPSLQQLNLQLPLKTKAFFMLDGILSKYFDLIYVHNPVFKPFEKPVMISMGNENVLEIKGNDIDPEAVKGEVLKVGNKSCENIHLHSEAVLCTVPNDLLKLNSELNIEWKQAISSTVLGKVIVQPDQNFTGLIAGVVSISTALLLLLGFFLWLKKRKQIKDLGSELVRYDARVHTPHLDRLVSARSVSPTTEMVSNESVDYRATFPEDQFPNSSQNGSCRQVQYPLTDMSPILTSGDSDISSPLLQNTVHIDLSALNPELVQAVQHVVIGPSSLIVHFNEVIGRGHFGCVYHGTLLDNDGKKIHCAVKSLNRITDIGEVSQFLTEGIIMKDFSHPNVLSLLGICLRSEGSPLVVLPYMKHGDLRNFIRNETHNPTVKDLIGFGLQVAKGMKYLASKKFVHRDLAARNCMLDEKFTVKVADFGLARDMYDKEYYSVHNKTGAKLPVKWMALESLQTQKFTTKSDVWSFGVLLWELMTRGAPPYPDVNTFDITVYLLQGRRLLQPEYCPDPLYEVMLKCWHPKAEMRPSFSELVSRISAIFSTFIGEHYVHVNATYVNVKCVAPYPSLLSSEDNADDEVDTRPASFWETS

Structure (SMILES)	% c-Met kinase activity remains [1]	Tumor Growth Inhibition (TGI) [2, 6]	Tumor Growth Inhibition (TGI) [3, 6]	Tumor Growth Inhibition (TGI) [4]	Tumor Growth Inhibition (TGI) [5]	Tumor Growth Inhibition (TGI) ([2]; 12.5 mg/kg oral once per day, n = 6 × 14)	Tumor Growth Inhibition (TGI) ([2]; 25 mg/kg oral once per day, n = 6 × 14)	Tumor Growth Inhibition (TGI) ([2]; 50 mg/kg oral once per day, n = 6 × 14)	Tumor Growth Inhibition (TGI) ([2]; 100 mg/kg oral once per day, n = 6 × 14)	Tumor Growth Inhibition (TGI) ([3]; 12.5 mg/kg oral once per day, n = 6 × 13)	Tumor Growth Inhibition (TGI) ([3]; 25 mg/kg oral once per day, n = 6 × 13)	Tumor Growth Inhibition (TGI) ([3]; 50 mg/kg oral once per day, n = 3 × 3)	Tumor Growth Inhibition (TGI) ([3]; 50 mg/kg oral once per day, n = 6 × 13)	Tumor Growth Inhibition (TGI) ([3]; 100 mg/kg oral once per day, n = 6 × 13)
Cl.O=C(Nc1cccc(C(F)(F)F)c1)Nc1cccc2c1ccn2Cc1ccnc2[nH]ccc12 [Example 51, 1-(3-Trifluoromethylphenyl)-3-[1-(1H-pyrrolo[2,3-b]pyridin-4-ylmethyl)-1H-indol-4-yl]urea hydrochloride]	B (the percentage is greater or equal to 70%)	A (the TGI is greater or equal to 50%)	A (the TGI is greater or equal to 50%)	A (the TGI is greater or equal to 50%)	A (the TGI is greater or equal to 50%)									
Cl.O=C(Nc1cc(Cl)ccc1F)Nc1cccc2c1ccn2Cc1ccnc2[nH]ccc12 [Example 56, 1-(2-Fluoro-5-chlorophenyl)-3-[1-(1H-pyrrolo[2,3-b]pyridin-4-ylmethyl)-1H-indol-4-yl]urea hydrochloride]	A (the percentage of kinase activity remains is below 70%)	A (the TGI is greater or equal to 50%)		A (the TGI is greater or equal to 50%)	A (the TGI is greater or equal to 50%)	A (the TGI is greater or equal to 50%)	A (the TGI is greater or equal to 50%)	A (the TGI is greater or equal to 50%)	A (the TGI is greater or equal to 50%)	B (the TGI for the compound of this invention is between 0% and 50%)	A (the TGI is greater or equal to 50%)	A (the TGI is greater or equal to 50%)	A (the TGI is greater or equal to 50%)	A (the TGI is greater or equal to 50%)
